Here are results for 3 compounds from patent US20160228388A1, “METHODS OF ADMINISTERING AMANTADINE COMPOSITIONS” (Adamas Pharmaceuticals, Inc., priority 2014, published 2016).

Structures can show the parent of a compound that is named as a salt.

One data set deals with Parkinson's patients. The following applies: cited from earlier work.
The test system of another data set is Iba-1. In words: Example 9: Iba-1 expression (marker of microglia activation) in EAE mice. The class given is in vivo. As to conditions: AMT 60 mg/kg/day, FIG. 8.
In data set [1] the test system is MOG35-55 induced experimental autoimmune encephalomyelitis (EAE) in C57BL/6 mice. In words: Example 9: kinematic gait analysis / MotoRater walk test in EAE mice. As to conditions: for % of animals able to complete the walking test: day 16, EAE mice, untreated EAE control 40%, FIG. 9. The class given is in vivo. The method, then: The captured videos of each mouse were first converted to SimiMotion software to track the marked points of body (e.g., paws, hips, tail, etc.), and the movement of these different body points in relation to the ground were recorded in coordinates. Different gait patterns and fine motor movements were analyzed using a custom made automated analysis system. Kinematic endpoints are described in Table 13. [table] Kinematic parameters (Table 13) were graphed as individual values in a scatter graph and/or as mean (±SEM) in a bar graph.

The test system is the same in data set [2]. In words: Example 9: clinical scoring of EAE in a mouse model of multiple sclerosis. The data set is classed as in vivo. The following applies: for onset of disease / clinical scores: AMT 60 mg/kg/day or DAL 4 mg/kg/day by Alzet minipump; for clinical scores: vs untreated EAE mice, FIG. 6; for cumulative clinical score (Day 18-27): vs untreated control, FIG. 7.

The conditions of data set [3]: dose related; Gracies and Olanow 2002; cited from earlier work.
Data set [4] deals with multiple sclerosis patients. The following applies: Goodman et al. 2009; cited from earlier work.

Consider `COC(=O)C(c1ccccc1)C1CCCCN1` (centres unmarked) [Methylphenidate], for which the gait impairment entry with Parkinson's patients (Parkinson's disease, Espay et al. 2011) is on record as “not effective”. In addition, the gait entry in the data set with Parkinson's patients (Parkinson's patients with severe gait disorders receiving STN stimulation, Moreau et al. 2012) was “improvement in gait”.

In the case of `NC12CC3CC(CC(C3)C1)C2` [Amantadine HCl], in the data set on Iba-1, the Iba-1 expression entry is given as “significantly lower expression”. The “60 cm Walk Time” value in data set [1] (Day 14, vs untreated EAE control and dalfampridine-treated group, FIG. 10A) was “lower time”. The mean walking speed entry in data set [1] (Day 14, vs untreated EAE control and dalfampridine-treated group, FIG. 10B) is “faster mean walking speed”. Further, the “% of animals able to complete the walking test” value in data set [1] stood at 60%. Moreover, the symptom severity entry in data set [2] (AMT 60 mg/kg/day by Alzet minipump) is recorded as “decreased symptom severity”. Also, in data set [2], the onset of disease entry is “Neither group treated with drug showed a delay onset of disease”, the clinical scores entry is listed as “lower clinical scores” and the “cumulative clinical score (Day 18-27)” value is given as “reduced cumulative clinical scores”. Moreover, in data set [3], the CNS side effects entry is “dose related CNS side effects including dizziness, confusion, hallucinations, insomnia and nightmares”.

`Nc1ccncc1` [Dalfampridine, 4-Aminopyridine]: in the data set with Parkinson's patients (Parkinson's patients, at four weeks, Luca et al. 2015), the “walking ability (velocity and stride length)” value is recorded as “did not show an improvement”. Besides, in data set [1], the “% of animals able to complete the walking test” value is reported as 50%. Besides, in data set [2], the onset of disease result was “Neither group treated with drug showed a delay onset of disease”, the clinical scores entry is “lower clinical scores” and the “cumulative clinical score (Day 18-27)” value is listed as “reduced cumulative clinical scores”. Moreover, in data set [4], the walking ability entry is “improvement in walking ability in some patients”.
